Data: US10752587B2, “Homobispiperidinyl derivatives as liver X receptor beta agonists, compositions and their use” (Merck Sharp & Dohme Corp., priority 2015, dated 2020)
Read-outs that look alike come from different tables or passages of the source.

How the values were obtained:
[1] = target: T1, glutathione-S-transferase (GST) tagged LXRalpha LBD (ligand binding domain) (Homo sapiens, UniProt Q13133); experiment: LanthaScreen TR-FRET Liver X Receptor Coactivator Assay, co-activator recruitment to LXRalpha LBD; type: biochemical; details: for Emax: read-out: LXR alpha Activity @ max dose (%); for LXR alpha IP (nM) / EC50: potency (Inflection Point, IP), co-activator recruitment to LXRalpha LBD, in relation to T0901317; for EC50: read-out: LXR alpha IP
T1 construct: purchased Invitrogen pv4655
T1 sequence (Q13133 209-447 limits assumed): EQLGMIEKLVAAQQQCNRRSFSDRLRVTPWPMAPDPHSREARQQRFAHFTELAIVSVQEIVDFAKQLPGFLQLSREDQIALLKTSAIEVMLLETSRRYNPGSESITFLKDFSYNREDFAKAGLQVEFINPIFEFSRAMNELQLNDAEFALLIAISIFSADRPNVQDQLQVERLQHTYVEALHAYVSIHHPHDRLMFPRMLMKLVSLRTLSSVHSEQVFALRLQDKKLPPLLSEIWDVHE
In short: (§1)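 Readout is time-resolved FRET between a terbium anti-GST antibody bound to the LBD and a fluorescein-tagged coactivator peptide recruited on ligand binding. Plates were incubated at room temperature before reading. Potency (IP) and efficacy (Emax) are referenced to T0901317.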

[2] = target: T2, glutathione-S-transferase (GST) tagged LXRbeta LBD (ligand binding domain) (Homo sapiens, UniProt P55055); experiment: LanthaScreen TR-FRET Liver X Receptor Coactivator Assay, co-activator recruitment to LXRbeta LBD; type: biochemical; details: for Emax: read-out: LXR beta Activity @ max dose (%); for EC50: potency (Inflection Point, IP), co-activator recruitment to LXRbeta LBD, in relation to T0901317
T2 construct: purchased Invitrogen pv4658.pps
T2 sequence (P55055 222-460 limits assumed): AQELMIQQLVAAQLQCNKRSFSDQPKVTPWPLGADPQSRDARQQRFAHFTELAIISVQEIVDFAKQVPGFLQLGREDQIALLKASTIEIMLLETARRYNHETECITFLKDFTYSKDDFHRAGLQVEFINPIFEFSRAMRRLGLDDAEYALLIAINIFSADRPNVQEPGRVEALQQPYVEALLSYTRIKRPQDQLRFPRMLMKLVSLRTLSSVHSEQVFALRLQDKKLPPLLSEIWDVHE
In short: as §1

[3] = efficacy at max dose, in relation to reference dual agonist T0901317

COc1cc(Cl)cc(C(O)(C(=O)N2CCC(CC3CCN(c4ccc(C(=O)N(C)C)c(Cl)n4)CC3)CC2)C(F)(F)F)c1 (stereo not drawn) [Example 7-105, 2-chloro-6-[4-({1-[2-(3-chloro-5-methoxyphenyl)-3,3,3-trifluoro-2-hydroxypropanoyl]piperidin-4-yl}methyl)piperidin-1-yl]-N,N-dimethylpyridine-3-carboxamide]
Emax [1, 3]: 0% | LXR alpha IP (nM) [1]: NO IP | Emax [2, 3]: 30% | EC50 ([2]; read-out: LXR beta IP): 76 nM

NC(=O)c1ccc(N2CCC(CC3CCN(C(=O)[C@](O)(c4cccc(Cl)c4)C(F)(F)F)CC3)CC2)cc1Cl [Example 12-5, 2-chloro-4-[4-({1-[(2R)-2-(3-chlorophenyl)-3,3,3-trifluoro-2-hydroxypropanoyl]-piperidin-4-yl}-methyl)piperidin-1-yl]benzamide]
Emax [1, 3]: 38% | EC50 [1]: 32 nM | Emax [2, 3]: 76% | EC50 ([2]; read-out: LXR beta IP): 4 nM

CS(=O)(=O)c1cccc(N2CCC(CC3CCN(C(=O)[C@](O)(c4ccccc4)C(F)(F)F)CC3)CC2)c1 [Example 2-74, (2R)-1,1,1-trifluoro-3-[4-({1-[3-(methylsulfonyl)phenyl]piperidin-4-yl}methyl)piperidin-1-yl]-3-oxo-2-phenylpropan-2-ol]
Emax [1, 3]: 38% | EC50 [1]: 444 nM | Emax [2, 3]: 87% | EC50 ([2]; read-out: LXR beta IP): 39 nM

CNC(=O)c1ccc(N2CCC(CC3CCN(C(=O)[C@](O)(c4cccc(OC(F)(F)F)c4)C(F)(F)F)CC3)CC2)nc1Cl [Example 7-139, 2-chloro-N-methyl-6-{4-[(1-{(2R)-3,3,3-trifluoro-2-hydroxy-2-[3-(trifluoromethoxy)phenyl]propanoyl}piperidin-4-yl)methyl]piperidin-1-yl}pyridine-3-carboxamide]
Emax [1, 3]: 26% | EC50 [1]: 223 nM | Emax [2, 3]: 91% | EC50 ([2]; read-out: LXR beta IP): 26 nM

CCOc1cccc([C@@](O)(C(=O)N2CCC(C)(CC3CCN(c4ccc(C(=O)N(C)C)c(Cl)n4)CC3)CC2)C(F)(F)F)c1 [Example 7-50, 2-chloro-6-[4-({1-[(2R)-2-(3-ethoxyphenyl)-3,3,3-trifluoro-2-hydroxypropanoyl]-4-methylpiperidin-4-yl}methyl)piperidin-1-yl]-N,N-dimethylpyridine-3-carboxamide]
Emax [1, 3]: 6% | LXR alpha IP (nM) [1]: NO IP | Emax [2, 3]: 47% | EC50 ([2]; read-out: LXR beta IP): 10 nM

CN(C)C(=O)c1ccc(N2CCC(CC3CCN(C(=O)[C@](O)(c4cccc(Cl)c4)C(F)(F)F)CC3)CC2)cc1 [Example 2-146, 4-[4-({1-[(2R)-2-(3-chloro-phenyl)-3,3,3-trifluoro-2-hydroxy-propanoyl]piperidin-4-yl}methyl)piperidin-1-yl]-N,N-dimethyl-benzamide]
LXR alpha Activity @ max dose (%) [1, 3]: 10% | LXR alpha IP (nM) [1]: NO IP | LXR beta Activity @ max dose (%) [2, 3]: 64% | EC50 ([2]; read-out: LXR beta IP): 33 nM

CN(C)C(=O)c1ccc(N2CCC(CC3CCN(C(=O)C4(c5ccccc5F)CCCC4)CC3)CC2)nc1Cl [Example 7-65, 2-chloro-6-{4-[(1-{[1-(2-fluorophenyl)cyclopentyl]carbonyl}piperidin-4-yl)methyl]piperidin-1-yl}-N,N-dimethylpyridine-3-carboxamide]
Emax [1, 3]: 29% | EC50 [1]: 658 nM | Emax [2, 3]: 95% | EC50 ([2]; read-out: LXR beta IP): 48 nM

CN(C)C(=O)c1ccc(N2CCC(CC3CCN(C(=O)[C@](O)(c4cccc(Br)c4)C(F)(F)F)CC3)CC2)cc1Cl [Example 2-83, 4-[4-({1-[(2R)-2-(3-bromo-phenyl)-3,3,3-trifluoro-2-hydroxy-propanoyl]piperidin-4-yl}methyl)piperidin-1-yl]-2-chloro-N,N-dimethyl-benzamide]
Emax [1, 3]: 26% | EC50 [1]: 83 nM | Emax [2, 3]: 68% | EC50 ([2]; read-out: LXR beta IP): 4 nM

COc1cccc([C@@](O)(C(=O)N2CCC(CC3CCN(c4ccc(C(=O)N(C)C)cc4)CC3)CC2)C(F)(F)F)c1 [Example 2-124, N,N-dimethyl-4-[4-({1-[(2R)-3,3,3-trifluoro-2-hydroxy-2-(3-methoxy-phenyl)propanoyl]piperidin-4-yl}methyl)piperidin-1-yl]benzamide]
Emax [1, 3]: 4% | LXR alpha IP (nM) [1]: NO IP | Emax [2, 3]: 55% | EC50 ([2]; read-out: LXR beta IP): 43 nM

CN(C)C(=O)c1ccc(N2CCC(CC3CCN(C(=O)[C@](O)(c4cccc(CC#N)c4)C(F)(F)F)CC3)CC2)cc1Cl [Example 2-120, 2-chloro-4-{4-[(1-{(2R)-2-[3-(cyanomethyl)phenyl]-3,3,3-trifluoro-2-hydroxy-propanoyl}piperidin-4-yl)methyl]piperidin-1-yl}-N,N-dimethyl-benzamide]
Emax [1, 3]: 6% | LXR alpha IP (nM) [1]: NO IP | Emax [2, 3]: 46% | EC50 ([2]; read-out: LXR beta IP): 16 nM

CN(C)C(=O)c1ccc(N2CCC(CC3CCN(C(=O)C(O)(c4ccccn4)C4CC4)CC3)CC2)cc1Cl (stereo not drawn) [Example 2-118, 2-chloro-4-[4-({1-[cyclopropyl (hydroxy)pyridin-2-ylacetyl]piperidin-4-yl}methyl)piperidin-1-yl]-N,N-dimethyl-benzamide]
LXR alpha IP (nM) [1]: NO IP | Emax [1]: 11% | EC50 ([2]; LXR beta IP (nM)): 219 nM | Emax [2]: 68%

CN(C)C(=O)c1ccc(N2CCC(CC3CCN(C(=O)C4(c5ccccc5)CCC4)CC3)CC2)cc1Cl [Example 2-18, 2-chloro-N,N-dimethyl-4-[4-({1-[(1-phenylcyclobutyl)carbonyl]piperidin-4-yl}methyl)piperidin-1-yl]benzamide]
Emax [1, 3]: 6% | LXR alpha IP (nM) [1]: NO IP | Emax [2, 3]: 46% | EC50 ([2]; read-out: LXR beta IP): 151 nM

O=C(c1ccc(N2CCC(CC3CCN(C(=O)[C@](O)(c4ccccc4)C(F)(F)F)CC3)CC2)cc1Cl)N1CC[C@@H](CO)C1 [Example 4-4, (2R)-3-(4-{[1-(3-chloro-4-{[(3R)-3-(hydroxymethyl)pyrrolidin-1-yl]carbonyl}phenyl)piperidin-4-yl]methyl}piperidin-1-yl)-1,1,1-trifluoro-3-oxo-2-phenylpropan-2-ol]
Emax [1, 3]: 24% | EC50 [1]: 459 nM | Emax [2, 3]: 56% | EC50 ([2]; read-out: LXR beta IP): 179 nM

Cc1cc(F)cc(C(O)(C(=O)N2CCC(CC3CCN(c4ccc(C(=O)N(C)C)c(Cl)c4)CC3)CC2)C(F)(F)F)c1 (stereo not drawn) [Example 2-42, 2-chloro-N,N-dimethyl-4-[4-({1-[3,3,3-trifluoro-2-(3-fluoro-5-methylphenyl)-2-hydroxy-propanoyl]piperidin-4-yl}methyl)piperidin-1-yl]benzamide]
Emax [1, 3]: 25% | EC50 [1]: 162 nM | Emax [2, 3]: 76% | EC50 ([2]; read-out: LXR beta IP): 12 nM

O=C(c1ccc(N2CCC(CC3CCN(C(=O)[C@](O)(c4ccccc4)C(F)(F)F)CC3)CC2)cc1Cl)N1[C@H]2CC[C@@H]1CC2 [Example 4-21, (2R)-3-{4-[(1-{4-[(1s,4s)-7-aza-bicyclo[2.2.1]hept-7-ylcarbonyl]-3-chlorophenyl}piperidin-4-yl)methyl]piperidin-1-yl}-1,1,1-trifluoro-3-oxo-2-phenylpropan-2-ol]
Emax [1, 3]: 25% | EC50 [1]: 457 nM | Emax [2, 3]: 63% | EC50 ([2]; read-out: LXR beta IP): 74 nM

CC(C)Oc1cccc([C@@](O)(C(=O)N2CCC(C)(CC3CCN(c4ccc(C(=O)N(C)C)c(Cl)c4)CC3)CC2)C(F)(F)F)c1 [Example 2-55, 2-chloro-N,N-dimethyl-4-{4-[(4-methyl-1-{(2R)-3,3,3-trifluoro-2-hydroxy-2-[3-(1-methyl-ethoxy)phenyl]propanoyl}piperidin-4-yl)methyl]piperidin-1-yl}benzamide]
Emax [1, 3]: 0% | LXR alpha IP (nM) [1]: NO IP | Emax [2, 3]: 44% | EC50 ([2]; read-out: LXR beta IP): 8 nM

CNC(=O)c1ccc(N2CCC(CC3CCN(C(=O)[C@](O)(c4cccc(C(C)C)c4)C(F)(F)F)CC3)CC2)nc1Cl [Example 7-149, 2-chloro-N-methyl-6-{4-[(1-{(2R)-3,3,3-trifluoro-2-hydroxy-2-[3-(1-methylethyl)phenyl]propanoyl}piperidin-4-yl)methyl]piperidin-1-yl}pyridine-3-carboxamide]
Emax [1, 3]: 32% | EC50 [1]: 163 nM | Emax [2, 3]: 91% | EC50 ([2]; read-out: LXR beta IP): 17 nM

COc1cccc([C@@](N)(C(=O)N2CCC(CC3CCN(c4ccc(C(=O)N(C)C)c(Cl)c4)CC3)CC2)C(F)(F)F)c1 [Example 2-103, 4-[4-({1-[(2R)-2-amino-3,3,3-trifluoro-2-(3-methoxyphenyl)propanoyl]piperidin-4-yl}methyl)piperidin-1-yl]-2-chloro-N,N-dimethyl-benzamide]
Emax [1, 3]: 0% | LXR alpha IP (nM) [1]: NO IP | Emax [2, 3]: 16% | EC50 ([2]; read-out: LXR beta IP): 181 nM
